Five compounds from patent US20240239861A1, “GLUCAGON-RECEPTOR SELECTIVE POLYPEPTIDES AND METHODS OF USE THEREOF” (i2O Therapeutics, Inc., priority 2016, published 2024) can be followed below.

One series can be described thus: in vivo. The conditions noted are these: male, rat.
The target in a further series is human GLP-1R (Homo sapiens, UniProt P43220). Kind of series: Peptide-receptor mediated cAMP accumulation (LANCE Ultra cAMP) in CHO-K1 cells transfected with human GLP-1R. The format is cell-based. The following applies: hGLP1 pEC50 (cAMP mean (n = 3): 11 point curve starting at 1 nM, Table 3). (cAMP levels reflect the balance of adenylyl cyclase and phosphodiesterase activity.)

Where a SMILES comes first, the peptide text is derived from it. [ ]: non-standard residue; d: D form. Aib = CC(C)(N)C(=O)O Some results are limits rather than exact numbers.

Sequence of human GLP-1R (P43220 24-463): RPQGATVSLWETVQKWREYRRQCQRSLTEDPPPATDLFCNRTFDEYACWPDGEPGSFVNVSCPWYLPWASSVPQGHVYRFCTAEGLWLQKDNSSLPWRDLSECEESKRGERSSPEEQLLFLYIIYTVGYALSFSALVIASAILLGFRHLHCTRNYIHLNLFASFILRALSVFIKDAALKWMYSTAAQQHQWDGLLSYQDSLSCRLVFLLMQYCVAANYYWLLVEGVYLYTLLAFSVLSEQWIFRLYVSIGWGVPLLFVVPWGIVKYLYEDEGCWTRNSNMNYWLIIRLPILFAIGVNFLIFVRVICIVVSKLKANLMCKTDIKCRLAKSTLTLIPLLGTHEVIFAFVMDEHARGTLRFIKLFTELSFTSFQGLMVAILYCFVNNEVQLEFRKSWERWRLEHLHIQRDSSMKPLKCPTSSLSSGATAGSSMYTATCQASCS
Description for in vivo: Peptides were formulated in sterile saline and administered as a 3-hour intravenous infusion to non-fasted male Wistar Han or Sprague-Dawley rats (n=3 per group) via jugular vein cannula at a final dose of 0.3 or 0.1 mg/kg. […] Plasma was prepared by centrifugation and stored at −80° C. until analysis.
Protein Precipitation: All 96-well plates were coated with a blocking agent to mitigate non-specific binding of peptides. Plasma samples (75 uL) were added to a 96-well plate containing 200 uL of 2:1 ethanol:acetonitrile containing 0.1% TFA and mixed well via aspiration. Plates were capped, vortex-mixed and centrifuged. Supernatants (215 uL) were transferred to a clean 96-well plate, evaporated to dryness under nitrogen flow and then reconstituted in 75 μL of 20% acetonitrile in water containing 0.10% formic acid.
Solid-Phase Extraction: Samples were diluted 3-fold with 5% NH4OH (aq) and loaded onto an Oasis MAX microElution plate (Waters Corp, Milford, MA) that had been pre-conditioned with 200 uL each of methanol and 5% NH4OH (aq). The plate was washed with 200 uL 5% NH4OH (aq), followed by 200 uL 20% acetonitrile in water. […] Samples were reconstituted in 80 uL 0.1% formic acid in water.
All calibration standards were prepared in control rat plasma containing K2EDTA and protease inhibitor cocktail. […] Samples were injected onto a 2.1×50 mm reverse phase C18 analytical column, typically a Waters ACQUITY UPLC™ HSS T3, 1.8 μm (Waters Corporation, Milford, MA) or similar. […] Typical flow rates were 600 L/min. The column temperature was held constant at 40 or 45° C. Peptides were quantified my monitoring one or more product ions produced from a multiply charged parent ion.

For orientation: clearance means the rate of elimination divided by the concentration. The low end stands for a low capacity for elimination, the high end for a high capacity for elimination. Usually EC50 stands for the concentration that produces a half-maximal response. A low value points to an effect from little substance. Take `CC(C)C[C@H](NC(=O)[C@H](Cc1c[nH]c2ccccc12)NC(=O)[C@H](CCCCN)NC(=O)[C@H](CO)NC(=O)[C@H](Cc1ccc(O)cc1)NC(=O)[C@H](CC(=O)O)NC(=O)[C@H](CO)NC(=O)[C@@H](NC(=O)[C@H](Cc1ccccc1)NC(=O)[C@@H](NC(=O)CNC(=O)[C@H](Cc1c[nH]cn1)NC(=O)[C@@H](NC(=O)[C@@H](N)Cc1ccc(O)cc1)[C@@H](C)O)[C@@H](C)O)[C@@H](C)O)C(=O)N[C@@H](CC(=O)O)C(=O)NC(C)(C)C(=O)N[C@@H](C)C(=O)N[C@@H](CCCNC(=N)N)C(=O)N[C@@H](C)C(=O)N[C@@H](CCC(N)=O)C(=O)N[C@@H](CCC(=O)O)C(=O)N[C@@H](Cc1ccccc1)C(=O)N[C@H](C(=O)NC(C)(C)C(=O)N[C@@H](Cc1c[nH]c2ccccc12)C(=O)N[C@@H](CC(C)C)C(=O)N[C@@H](CCC(=O)O)C(=O)N[C@@H](CC(=O)O)C(=O)N[C@@H](CCC(=O)O)C(=O)N1CCC[C@H]1C(=O)N[C@@H](CO)C(=O)N[C@@H](CO)C(=O)NCC(=O)N[C@@H](C)C(=O)N1CCC[C@H]1C(=O)N1CCC[C@H]1C(=O)N1CCC[C@H]1C(=O)N[C@@H](CO)C(=O)O)C(C)C` [Compound A35] (H-YTHGTFTSDYSKWLD[Aib]ARAQEFV[Aib]WLEDEPSSGAPPPS-OH; N-terminus assumed): the clearance in “in vivo” was determined as 30.1 mL/min/kg. This compound registered a half-maximal effective concentration (EC50) on human GLP-1R above 1 nM.
On the same counts, the results for `CC(C)C[C@H](NC(=O)[C@H](Cc1ccc(O)cc1)NC(=O)[C@H](CCCCN)NC(=O)[C@H](CO)NC(=O)[C@H](Cc1ccc(O)cc1)NC(=O)[C@H](CC(=O)O)NC(=O)[C@H](CO)NC(=O)[C@@H](NC(=O)[C@H](Cc1ccccc1)NC(=O)[C@@H](NC(=O)CNC(=O)[C@H](CCC(N)=O)NC(=O)[C@H](CO)NC(=O)[C@@H](N)Cc1ccc(O)cc1)[C@@H](C)O)[C@@H](C)O)C(=O)N[C@@H](CC(=O)O)C(=O)NC(C)(C)C(=O)N[C@@H](CCCCN)C(=O)N[C@@H](CCCNC(=N)N)C(=O)N[C@@H](C)C(=O)N[C@@H](CCC(N)=O)C(=O)N[C@@H](CCC(=O)O)C(=O)N[C@@H](Cc1ccccc1)C(=O)N[C@H](C(=O)NC(C)(C)C(=O)N[C@@H](Cc1c[nH]c2ccccc12)C(=O)N[C@@H](CC(C)C)C(=O)N[C@@H](CCC(=O)O)C(=O)N[C@@H](CC(=O)O)C(=O)N[C@@H](CCC(=O)O)C(=O)N1CCC[C@H]1C(=O)N[C@@H](CO)C(=O)N[C@@H](CO)C(=O)NCC(=O)N[C@@H](CCCCN)C(=O)N1CCC[C@H]1C(=O)N1CCC[C@H]1C(=O)N1CCC[C@H]1C(=O)N[C@@H](CO)C(=O)O)C(C)C` [Compound A86] (H-YSQGTFTSDYSKYLD[Aib]KRAQEFV[Aib]WLEDEPSSGKPPPS-OH; N-terminus assumed) are 14.7 mL/min/kg and above 1 nM.
`CC(C)C[C@H](NC(=O)[C@H](Cc1ccc(O)cc1)NC(=O)[C@H](CCCCN)NC(=O)[C@H](CO)NC(=O)[C@H](Cc1ccc(O)cc1)NC(=O)[C@H](CC(=O)O)NC(=O)[C@H](CO)NC(=O)[C@@H](NC(=O)[C@H](Cc1ccccc1)NC(=O)[C@@H](NC(=O)CNC(=O)[C@H](Cc1c[nH]cn1)NC(=O)[C@H](CO)NC(=O)[C@@H](N)Cc1ccc(O)cc1)[C@@H](C)O)[C@@H](C)O)C(=O)N[C@@H](CC(=O)O)C(=O)NC(C)(C)C(=O)N[C@@H](CCCCN)C(=O)N[C@@H](CCCNC(=N)N)C(=O)N[C@@H](C)C(=O)N[C@@H](CCC(N)=O)C(=O)N[C@@H](CCC(=O)O)C(=O)N[C@@H](Cc1ccccc1)C(=O)N[C@H](C(=O)NC(C)(C)C(=O)N[C@@H](Cc1c[nH]c2ccccc12)C(=O)N[C@@H](CC(C)C)C(=O)N[C@@H](CCC(=O)O)C(=O)N[C@@H](CC(=O)O)C(=O)N[C@@H](CCC(=O)O)C(=O)N1CCC[C@H]1C(=O)N[C@@H](CO)C(=O)N[C@@H](CO)C(=O)NCC(=O)N[C@@H](CCCCN)C(=O)N1CCC[C@H]1C(=O)N1CCC[C@H]1C(=O)N1CCC[C@H]1C(=O)N[C@@H](CO)C(=O)O)C(C)C` [Compound A20] (H-YSHGTFTSDYSKYLD[Aib]KRAQEFV[Aib]WLEDEPSSGKPPPS-OH; N-terminus assumed) showed a clearance in “in vivo” of 15 mL/min/kg. Moreover, the concentration for a half-maximal effect (EC50) at human GLP-1R was above 1 nM.
On the same counts, the results for `CC(C)C[C@H](NC(=O)[C@H](Cc1ccc(O)cc1)NC(=O)[C@H](CCCCN)NC(=O)[C@H](CO)NC(=O)[C@H](Cc1ccc(O)cc1)NC(=O)[C@H](CC(=O)O)NC(=O)[C@H](CO)NC(=O)[C@@H](NC(=O)[C@H](Cc1ccccc1)NC(=O)[C@@H](NC(=O)CNC(=O)[C@H](Cc1c[nH]cn1)NC(=O)[C@H](CO)NC(=O)[C@@H](N)Cc1ccc(O)cc1)[C@@H](C)O)[C@@H](C)O)C(=O)N[C@@H](CC(=O)O)C(=O)NC(C)(C)C(=O)N[C@@H](CCCCN)C(=O)N[C@@H](CCCNC(=N)N)C(=O)N[C@@H](C)C(=O)N[C@@H](CCC(N)=O)C(=O)N[C@@H](CCC(=O)O)C(=O)N[C@@H](Cc1ccccc1)C(=O)N[C@H](C(=O)NC(C)(C)C(=O)N[C@@H](Cc1c[nH]c2ccccc12)C(=O)N[C@@H](CC(C)C)C(=O)N[C@@H](CCC(=O)O)C(=O)N[C@@H](CC(=O)O)C(=O)N[C@@H](CCC(=O)O)C(=O)N1CCC[C@H]1C(=O)N[C@@H](CO)C(=O)N[C@@H](CO)C(=O)N[C@@H](CCCCN)C(=O)N[C@@H](CCC(=O)O)C(=O)N1CCC[C@H]1C(=O)N1CCC[C@H]1C(=O)N1CCC[C@H]1C(=O)N[C@@H](CO)C(=O)O)C(C)C` [Compound A54] (H-YSHGTFTSDYSKYLD[Aib]KRAQEFV[Aib]WLEDEPSSKEPPPS-OH; N-terminus assumed) are 24 mL/min/kg and above 1 nM.
In turn, `CC(C)C[C@H](NC(=O)[C@H](Cc1ccc(O)cc1)NC(=O)[C@H](CCCCN)NC(=O)[C@H](CO)NC(=O)[C@H](Cc1ccc(O)cc1)NC(=O)[C@H](CC(=O)O)NC(=O)[C@H](CO)NC(=O)[C@@H](NC(=O)[C@H](Cc1ccccc1)NC(=O)[C@@H](NC(=O)CNC(=O)[C@H](Cc1c[nH]cn1)NC(=O)[C@H](CO)NC(=O)[C@@H](N)Cc1ccc(O)cc1)[C@@H](C)O)[C@@H](C)O)C(=O)N[C@@H](CC(=O)O)C(=O)N[C@@H](CO)C(=O)N[C@@H](C)C(=O)N[C@@H](CCCNC(=N)N)C(=O)N[C@@H](C)C(=O)N[C@@H](CCC(N)=O)C(=O)N[C@@H](CCC(=O)O)C(=O)N[C@@H](Cc1ccccc1)C(=O)N[C@H](C(=O)N[C@@H](CCCCN)C(=O)N[C@@H](Cc1c[nH]c2ccccc12)C(=O)N[C@@H](CC(C)C)C(=O)N[C@@H](CCC(=O)O)C(=O)N[C@@H](CC(=O)O)C(=O)N[C@@H](CCC(=O)O)C(=O)N1CCC[C@H]1C(=O)N[C@@H](CCCCN)C(=O)N[C@@H](CO)C(=O)N[C@@H](CCCCN)C(=O)N[C@@H](CCC(=O)O)C(=O)N1CCC[C@H]1C(=O)N1CCC[C@H]1C(=O)N1CCC[C@H]1C(=O)N[C@@H](CO)C(N)=O)C(C)C` [Compound A72] (H-YSHGTFTSDYSKYLDSARAQEFVKWLEDEPKSKEPPPS-NH2) yielded a clearance in “in vivo” of 31.3 mL/min/kg. The EC50 at human GLP-1R is above 1 nM.
